This note sets out measurements from patent publication US8557265B2, “Use of a synergistic composition as a therapeutic agent of disinfectant” (Bode Chemie GmbH, priority 2007, dated 2013).

What all share (type): cell-based
Assay [1] deals with genomic DNA and extrachromosomal plasmid (Yep351) of recombinant Escherichia coli strain. Description: Breakdown of genomic DNA and extrachromosomal plasmid DNA in microorganisms, gel electrophoresis (FIG. 1). The settings on record: E. coli suspension, lysozyme 5 minutes, then 5 minutes with 5 μl of solution. The protocol: A recombinant Escherichia coli strain with an extrachromosomal plasmid (Yep351) was cultivated overnight in LB amp medium. Every 5 μl of this E. coli suspension were treated with 5 μl of lysozyme solution (1 mg/ml) for 5 minutes and then incubated for another 5 minutes with 5 μl of the indicated solutions (1-5). After adding bromophenol blue, the samples were placed in the gel bags and the DNA molecules were separated by electrophoresis.

Another assay has as its system Bacillus subtilis. Description: Test for antimicrobial action, colony count after plating. The note with it: cell count of 106 in 50 μl mixed 1:1; incubation time 2 minutes; plated, 37° C. The protocol: (§1) Fresh cultures of the indicated microorganisms were adjusted to a cell count of […] in 50 μl and then mixed in a 1:1 ratio with 50 μl of water 70% ethanol or the invented agent (100 mM ascorbic acid, 10 mM FeCl3, and 0.5% SDS). After an incubation time of 2 minutes, the 100 μl batches with the bacteria were plated out on corresponding growth dishes. After an incubation of 1-3 days at 28° C. (Saccharomyces cerevisiae and Candida parapsilosis) or 37° C. (Escherichia coli and Bacillus subtilis), the number of grown colonies was determined. In the batches with sterile water, all microorganisms survived.

For the next assay, the system named is Candida parapsilosis. Described as above. The note with it: cell count of 106 in 50 μl mixed 1:1; incubation time 2 minutes; plated, 28° C. The method, then:
as §1

For another assay, the system named is Escherichia coli. The assay is described as above. The settings on record: cell count of 106 in 50 μl mixed 1:1; incubation time 2 minutes; plated, 37° C. The protocol:
as §1

A further assay has as its system Saccharomyces cerevisiae. The description is as above. The settings on record: cell count of 106 in 50 μl mixed 1:1; incubation time 2 minutes; plated, 28° C. The protocol: as §1

Take `CCO` [70% ethanol, ethanol]: in assay [1], the “effect on DNA molecules in gel electrophoresis” value was “precipitation of the cell lysate and the DNA”. Further, the “number of grown colonies” value with Bacillus subtilis, with Candida parapsilosis, with Escherichia coli and in the assay with Saccharomyces cerevisiae was 0 throughout.

With `CCCCCCCCCCCCOS(=O)(=O)[O-].[Na+]` [sample 3, SDS], the “effect on DNA molecules in gel electrophoresis” value in assay [1] is recorded as “lysis of the cells”.
